Like-named read-outs stand apart in the source and are kept apart here.
Experiments:
Nutritional IDA Model = tested on: Nutritional IDA Model
Protocol: 1. […] All drugs were diluted by distilled water.
(2) Nutritional Anemia Model: Male Wistar rats with body weight 43±2.5 g (Animal Center of Beijing Medical University) were randomly divided into 8 groups of 10 rats each, wherein 6 groups were established for the investigation of nutritional anemia and 2 groups were used as normal control group. The rats of these six groups were supplemented with iron-low diet (prepared according to the formula of AOAC, iron content 8.0 mg/kg) and deionized water four weeks to prepare the nutritional IDA model, which also was called hemoglobin exhausting test. Another two groups were designed as normal control groups and were provided with normal diet (obtained from Beijing Medical University) and water during the whole experimental period.
Hemoglobin of each group of rats was measured one time every 7 days. […] Other 6 groups (three for ferrous L-threonate, one for ferrous gluconate, one for mode control and one normal control group) rats were kept under controlled conditions (ambient temperature 23° C., 60% relative humidity, and 10 hours light) in animal feeding room to continue the further test.

IDA for Children = conditions: for FEP / RBC / SF / Hb: tablets 7.5 mg Fe + 30 mg vitamin C
Protocol: Subjects: Thirty school-age children aged from 8 to 13 years of Haerbin city of China.
Methods: Blood samples of 10 μl from ear and 5 ml from arm vein for each patient were collected for measurement.
(1) Measurement of RBC: 10 μl blood sample was added to 2 ml diluent and the mixture was shaken completely. One drop of this suspending solution taken by circle glass bar was poured into counting cell. RBC was countered through microscope by laying counting plate on the microstat.
(2) Measurement of HB: The ferric cyanide method was used to determine the HB. 10 μl ear blood sample was added to 5 ml acid diluent to obtain the completely mixed solution by shaking. HB was measured by SH hemoglobinometer manufactured by Huauang Instrument Company of Jianshu Province. Ferric cyanide was purchased from Medical Examination Institute of Shanghai.
(3) Measurement of FEP: To add 0.05 ml whole blood sample anticoagulated by heparin to 3.5 ml of acid anhydrous ethyl alcohol, the mixture was shaken for 5 min and then was centrifugalized with speed of 3000 r/min. The centrifugate of mixture was used for the measurement of fluorometric method (400 nm for exciting optical filter and 600 nm for emitting optical filter).
According to formula given below, the FEP can be calculated. [formula]
Where Fu and PCV represent fluorescence extent and hematocrit, respectively.
To centifugalized 2 ml whole blood sample, the upper solution was used for measurement of SF through the method of radio-immune competition-inhibition program.
Among these 62 IDA patients, 30 children were randomly selected as treatment group of ferrous L-threonate.
Another 30 children with IDA were selected from another prime school with the same diagnosing standards and were established as control group.
Observation time for treatment group and control group was 30 days period and during that period, there were no any intervention on children's activity and food.
(3) Dosages: Each child of treatment group was administered ferrous L-threonate tablets twice a day, one tablet each time. While normal control group was treated with placebo by the same method.

[1] = after treatment (30 days), twice a day

In the case of ferrous L-threonate, the “hemochrome content, onset of increase” value (Nutritional IDA Model; end of 7 days supplementation) is reported as “started to increase at the end of 7 days supplementation”, the “hemochrome content compared with normal control groups” value (Nutritional IDA Model; rat, in vivo) is reported as “reached nearly the normal levels of normal control groups” and the “parameters investigated compared with ferrous gluconate” value (Nutritional IDA Model; same ferrous dosage) is reported as “better than those of the known drug, ferrous gluconate”. The “variations of Hb, SF and RBC compared with control group” value (IDA for Children; 30 days of treatment, P<0.01) was “significantly better compared with those of control group (P<0.01)”, the FEP (IDA for Children; after treatment (30 days)) was 445.1 µg/L and the RBC (IDA for Children; [1]) was 401.5 ± 12.4 10^4 /mm^3. For the same substance, the SF (IDA for Children; [1]) was 17.01 ± 1.99 µg/L, the Hb (IDA for Children; before treatment, twice a day) was 104.8 ± 6.1 g/L and the RBC (IDA for Children; before treatment, twice a day) was 387 ± 6.67 10^4 /mm^3. The SF (IDA for Children; before treatment, twice a day) was 12.45 ± 1.50 µg/L, the “number of children with Hb > 120 g/L and ΔHb > 10 g/L” value (IDA for Children; n=30, tablets, 30 days) was 17 and the “number of children with no effectiveness” value (IDA for Children; n=30, tablets, 30 days) was 6. The “number of children with ΔHb > 5 g/L” value (IDA for Children; n=30, tablets, 30 days) was 7, the “share of children with Hb > 120 g/L and ΔHb > 10 g/L” value (IDA for Children; n=30, tablets, 30 days) was 56.7% and the “share of children with no effectiveness” value (IDA for Children; n=30, tablets, 30 days) was 20.0%. For the same substance, the “share of children with ΔHb > 5 g/L” value (IDA for Children; n=30, tablets, 30 days) was 23.3%, the FEP (IDA for Children; printed under after treatment (30 days)) was 120.4 ± 11.2 µg/L and the Hb (IDA for Children; printed under before treatment) was 669.1 ± 72.0 g/L. The “effective rate of improving the case of IDA for children” value (IDA for Children; tablets, 30 days) was 80% and the “variations of Hb, SF and RBC before and after treatment” value (IDA for Children; treatment group, P<0.01) was “understandingly significant difference (P<0.01)”.
